This note sets out measurements from ChEMBL document CHEMBL5058564, “EUbOPEN Chemogenomics Library 2 (Incucyte)” (2022).

What all share (type): toxicity, cell-based
The subject of data set [1] is HEK-293T. Briefly: Incucyte cell viability with HEK293T. The note with it: human, 10 µM, compound concentration 10 uM.
Data set [2] relates to Fibroblast. Briefly: Incucyte cell viability with human fibroblast. The conditions noted are these: 10 µM, compound concentration 10 uM.
The subject of data set [3] is U2OS. Briefly: Incucyte cell viability with U2OS. The conditions noted are these: human, 10 µM, compound concentration 10 uM.
The mark [4] stands for this setting: 0 h, replicate number 1, timepoint 0 hours.
Setting [5] is: 0 h, replicate number 2, timepoint 0 hours.
Setting [6] is: 24 h, replicate number 1, timepoint 24 hours.
[7] abbreviates: 12 h, replicate number 2, timepoint 12 hours.
Setting [8] is: 6 h, replicate number 1, timepoint 6 hours.
Where [9] appears, read: 6 h, replicate number 2, timepoint 6 hours.
[10] abbreviates: 12 h, replicate number 1, timepoint 12 hours.
[11] abbreviates: 18 h, replicate number 1, timepoint 18 hours.
[12] abbreviates: 18 h, replicate number 2, timepoint 18 hours.
[13] abbreviates: 24 h, replicate number 2, timepoint 24 hours.
Note: unitless GR value; below 1 slowed growth and below 0 cell loss.

As for `Cc1nn(C)c2nc(NNC(=O)Nc3cc(Cl)nc(Cl)c3)cc(C(C)C)c12`, the “Growth Rate” value is on record as 0.64 in data set [1] (setting [4]); 0.57 in data set [1] (setting [5]); 0.97 in data set [1] (setting [6]); 0.09 in data set [2] (setting [4]); 0.58 in data set [2] (setting [5]); -1 in data set [3] (setting [5]). Further, in data set [3] (setting [7]), the “Growth Rate” value is given as 0.96.
As for `c1ccc(NCc2ccc(CNc3ccccn3)cc2)nc1`, the “Growth Rate” value in data set [1] (setting [5]) turned out to be 0.94; in data set [1] (setting [8]), 0.66; in data set [1] (setting [9]) it was 0.7; in data set [1] (setting [10]) it was 0.44; in data set [1] (setting [7]), 0.83; in data set [1] (setting [11]), 0.98. In addition, the “Growth Rate” value is recorded as 1 in data set [2] (setting [9]); 0.23 in data set [2] (setting [10]); 0.64 in data set [2] (setting [7]); 0.88 in data set [2] (setting [11]); 0.76 in data set [2] (setting [6]); -1 in data set [3] (setting [5]). The “Growth Rate” value was 0.76 in data set [3] (setting [11]), 0.98 in data set [3] (setting [12]) and 0.93 in data set [3] (setting [6]).
With `CC[C@H](Nc1ncnc2[nH]cnc12)c1nc2cccc(F)c2c(=O)n1-c1ccccc1` [IDELALISIB], the “Growth Rate” value in data set [1] (setting [8]) is listed as 0.2; in data set [1] (setting [9]), 0.76; in data set [1] (setting [10]), 0.52; in data set [1] (setting [7]), 0.57; in data set [1] (setting [11]), 0.56; in data set [1] (setting [12]) it was 0.7. The “Growth Rate” value in data set [1] (setting [6]) was 0.64; in data set [1] (setting [13]), 0.68; in data set [2] (setting [8]), -0.73; in data set [2] (setting [9]), 0.36; in data set [2] (setting [10]) it was -0.05; in data set [2] (setting [7]), 0.48. Moreover, the “Growth Rate” value in data set [2] (setting [11]) is reported as -0.04; in data set [2] (setting [12]), 0.59; in data set [2] (setting [6]) it was -0.13; in data set [2] (setting [13]) it was 0.75; in data set [3] (setting [4]), 0.06; in data set [3] (setting [5]), -0.03. Further, the “Growth Rate” value in data set [3] (setting [8]) is on record as 0.46; in data set [3] (setting [9]), 0.59; in data set [3] (setting [10]) it was 0.4; in data set [3] (setting [7]), 0.55; in data set [3] (setting [11]), 0.44; in data set [3] (setting [12]), 0.68. The “Growth Rate” value turned out to be 0.59 in data set [3] (setting [6]) and 0.73 in data set [3] (setting [13]).
Regarding `Cc1ccc2c(c1CCC(=O)O)CC[C@@H](NS(=O)(=O)c1ccc(Cl)cc1)C2` [TERUTROBAN], the “Growth Rate” value in data set [1] (setting [4]) was 0.06; in data set [1] (setting [5]) it was 0.31; in data set [1] (setting [8]) it was 0.87; in data set [1] (setting [11]), 0.99; in data set [1] (setting [12]) it was 0.97; in data set [1] (setting [6]) it was 0.94. For the same compound, the “Growth Rate” value in data set [2] (setting [4]) was -0.56; in data set [2] (setting [5]), 0; in data set [2] (setting [6]) it was 0.83; in data set [3] (setting [4]) it was -0.59; in data set [3] (setting [5]), -1.
In the case of `COc1ccc2cc(S(=O)(=O)N[C@H](CC(=O)N[C@H](Cc3ccc(CN4[C@H](C)CCC[C@@H]4C)cc3)C(=O)N(C)C(C)C)c3ccc4c(c3)OCO4)ccc2c1.Cl`, the “Growth Rate” value in data set [1] (setting [8]) is recorded as -0.08; in data set [1] (setting [10]) it was 0.01; in data set [1] (setting [7]), 0.35; in data set [1] (setting [11]) it was 0.02; in data set [1] (setting [12]) it was 0.41; in data set [1] (setting [6]), 0.01. The “Growth Rate” value was 0.42 in data set [1] (setting [13]); -0.08 in data set [2] (setting [5]); -0.65 in data set [2] (setting [8]); -0.35 in data set [2] (setting [9]); -0.6 in data set [2] (setting [10]); -0.1 in data set [2] (setting [7]). Moreover, the “Growth Rate” value was -0.65 in data set [2] (setting [11]); -0.15 in data set [2] (setting [12]); -0.57 in data set [2] (setting [6]); -0.02 in data set [2] (setting [13]); -0.35 in data set [3] (setting [5]); 0.84 in data set [3] (setting [8]). Besides, the “Growth Rate” value in data set [3] (setting [10]) was 0.63; in data set [3] (setting [7]), 0.61; in data set [3] (setting [11]), 0.67; in data set [3] (setting [12]) it was 0.57; in data set [3] (setting [6]) it was 0.69; in data set [3] (setting [13]), 0.53.
Regarding `Cc1c(C(=O)Nc2ccc(N3C[C@@H](C)O[C@@H](C)C3)nc2)cccc1-c1ccc(OC(F)(F)F)cc1` [SONIDEGIB], the “Growth Rate” value in data set [1] (setting [5]) is reported as -0.95; in data set [1] (setting [8]), 0.25; in data set [1] (setting [9]), -0.63; in data set [1] (setting [10]) it was -0.06; in data set [1] (setting [7]) it was -0.54; in data set [1] (setting [11]) it was 0. The “Growth Rate” value in data set [1] (setting [12]) is -0.39; in data set [1] (setting [6]), 0.05; in data set [1] (setting [13]), -0.3; in data set [2] (setting [4]), 0.97; in data set [2] (setting [5]) it was 0.63; in data set [2] (setting [8]) it was 0.45. Further, the “Growth Rate” value in data set [2] (setting [10]) is recorded as 0.42; in data set [2] (setting [11]), 0.13; in data set [2] (setting [6]), 0.36; in data set [3] (setting [4]), -0.44; in data set [3] (setting [5]) it was -1; in data set [3] (setting [13]), 0.97.
`C[C@@H]1CN(Cc2ccc(F)cc2)CCN1C(=O)COc1ccc(Cl)cc1NC(N)=O` [BX 471 FREE BASE]: the “Growth Rate” value in data set [1] (setting [8]) is listed as -0.13; in data set [1] (setting [9]), 0.4; in data set [1] (setting [10]) it was -0.03; in data set [1] (setting [7]), 0.27; in data set [1] (setting [11]), 0.11; in data set [1] (setting [12]), 0.4. Also, the “Growth Rate” value in data set [1] (setting [6]) was 0.18; in data set [1] (setting [13]), 0.33; in data set [2] (setting [4]) it was 0.82; in data set [2] (setting [5]), 0.24; in data set [2] (setting [8]), -0.16; in data set [2] (setting [9]), 0.36. The “Growth Rate” value in data set [2] (setting [10]) is -0.14; in data set [2] (setting [7]), 0.49; in data set [2] (setting [11]), -0.19; in data set [2] (setting [12]), 0.85; in data set [2] (setting [6]), -0.14; in data set [2] (setting [13]), 0.72. In addition, the “Growth Rate” value in data set [3] (setting [4]) was -0.96; in data set [3] (setting [5]) it was -1; in data set [3] (setting [9]), 0.94; in data set [3] (setting [7]), 0.91; in data set [3] (setting [12]), 0.79; in data set [3] (setting [13]) it was 0.89.
With `O=c1c2cccn2c2ccccc2n1CCCN1CCC(c2ccc(Cl)cc2)CC1`, the “Growth Rate” value is listed as 0.34 in data set [1] (setting [9]); 0.61 in data set [1] (setting [10]); 0.39 in data set [1] (setting [7]); 0.56 in data set [1] (setting [11]); 0.55 in data set [1] (setting [12]); 0.76 in data set [1] (setting [6]). Further, the “Growth Rate” value was 0.9 in data set [1] (setting [13]); -0.55 in data set [2] (setting [8]); -0.88 in data set [2] (setting [9]); -0.52 in data set [2] (setting [10]); -0.58 in data set [2] (setting [7]); -0.55 in data set [2] (setting [11]). For the same compound, the “Growth Rate” value in data set [2] (setting [12]) is -0.28; in data set [2] (setting [6]), -0.3; in data set [2] (setting [13]) it was -0.26; in data set [3] (setting [5]), -1; in data set [3] (setting [7]) it was 0.89; in data set [3] (setting [12]), 0.89. Besides, the “Growth Rate” value in data set [3] (setting [13]) is on record as 0.8.
Turning to `CCCCCCCCCCCCC/C=C/[C@@H](O)[C@@H](N)COP(=O)([O-])OCC[N+](C)(C)C` [SPHINGOSYLPHOSPHORYLCHLOLINE], the “Growth Rate” value in data set [1] (setting [8]) is -0.01; in data set [1] (setting [9]) it was -0.35; in data set [1] (setting [10]), 0.28; in data set [1] (setting [7]) it was -0.08; in data set [1] (setting [11]), 0.46; in data set [1] (setting [12]), 0.29. Moreover, the “Growth Rate” value in data set [1] (setting [6]) was 0.43; in data set [1] (setting [13]) it was 0.54; in data set [2] (setting [8]) it was -0.36; in data set [2] (setting [9]) it was -0.69; in data set [2] (setting [10]) it was -0.22; in data set [2] (setting [7]) it was -0.25. Also, the “Growth Rate” value is on record as -0.17 in data set [2] (setting [11]); 0.1 in data set [2] (setting [12]); 0.17 in data set [2] (setting [6]); 0.07 in data set [2] (setting [13]); 0.97 in data set [3] (setting [8]); 0.91 in data set [3] (setting [7]). Also, the “Growth Rate” value was 0.8 in data set [3] (setting [12]), 0.9 in data set [3] (setting [6]) and 0.88 in data set [3] (setting [13]).
For the compound `CC1=C(C)C(=O)C(C(CCCCCC(=O)O)c2ccccc2)=C(C)C1=O` (configuration not stated) [SERATRODAST], the “Growth Rate” value is given as 0.54 in data set [1] (setting [9]); 0.63 in data set [1] (setting [7]); 1 in data set [2] (setting [4]); 0.67 in data set [2] (setting [8]); -0.5 in data set [3] (setting [4]); -1 in data set [3] (setting [5]). Further, the “Growth Rate” value in data set [3] (setting [13]) is 0.99.
